The text below walks through data of patent US11771659B2, “Treating disease and promoting weight loss by inhibiting the TMA/FMO3/TMAO pathway” (The Cleveland Clinic Foundation, priority 2017, dated 2023).

The test system of experiment [1] is male C57BL6/J mice on 60% high fat diet. In words: TMA lyase inhibition in high fat diet-fed mice (HFD vs HFD+IMC). The following applies: 0.06% IMC in 60% high fat diet, 6-week-old male C57BL6/J mice. It is filed as in vivo. The method, then: 6-week-old male C57BL6/J mice were maintained on either 60% high fat diet (HFD) or HFD supplemented with 0.06% TMA lyase inhibitor iodomethyl choline (HFD+IMC) for weeks. Results are shown in FIG. 7 (A-E): A) Plasma TMA and TMAO levels (uM); B) Body weight (g); C) Food consumption normalized to body weight (g of diet consumed per day per g of body weight); D) Glucose tolerance measured after 12 weeks on diet; and E) Plasma insulin measured following an overnight fast (Fasted) or 4 hours postprandially (Fed); n=4-5 mice/group.
To determine the role of TMA and TMAO on diet-induced obesity, cohorts of 6-week-old male C57BL6/J mice fed HFD and HFD+IMC were supplemented with either 100 mM TMA in the drinking water (K-M) or 0.3% w/w TMAO in the diet (N-P). […] FIGS. 7K-P specifically show: K) Plasma TMA and TMAO levels (uM) after 6 weeks on diet and TMA supplementation; L) Body weight (g) over 12 weeks; M) Glucose tolerance measured after 10 weeks on diet and TMA supplementation; N) Plasma TMA and TMAO levels (uM) after 12 weeks on diet and TMAO supplementation; O) Body weight (g) over 20 weeks; and P) Glucose tolerance measured after 12 weeks on diet and TMAO supplementation. n=8-10 mice per diet group for all studies unless otherwise indicated. […] Statistical significance determined using student's t-test or two-way ANOVA where appropriate. […]

The test system of experiment [2] is male leptin deficient ob/ob mice. Put plainly: TMA lyase inhibition in leptin deficient ob/ob mice (Con vs Con+IMC). Type of experiment: in vivo. The following applies: 0.06% IMC in control diet, 16 weeks. An excerpt: 6-week-old male leptin deficient ob/ob mice were maintained on either control diet (Con) or control diet supplemented with 0.06% TMA lyase inhibitor iodomethyl choline (Con+IMC) for 16 weeks. Results are shown in FIG. 7(F-J): F) Plasma TMA and TMAO levels (uM); G) Body weight (g); H) Food consumption normalized to body weight (g of diet consumed per day per g of body weight); I) Glucose tolerance measured after 12 weeks on diet; and J) Mean oxygen consumption (VO2; ml/kg/hr) measured after 5 weeks on diet; n=6 mice/group.
FIG. 8A-F represents data from HFD model and G-K the Ob/Ob model. FIG. 8A,G. Principal co-ordinate analysis (PCoA) plot of microbiota profiles built from weighted Unifrac distances. Each point represents a single sample from a single mouse. Positions of points in space display dissimilarities in the microbiota, with points further from one another being more dissimilar. FIG. 8B,H. Barplot of cecal microbiota at the phylum level. Each bar represents an individual mouse and each color an individual phyla. FIG. 8C. Relative abundance of Firmicutes, Bacteroidetes and the Firmicutes to Baceteroidetes ratio for mice on HFD with or without IMC. […] Points extending beyond the lines are outliers defined as values greater or less than 1.5 times the interquartile range. […] FIG. 8E,J. Spearman's correlation between Akkermansia muciniphila and TMA/body weight. […]

Experiment [3] concerns G protein-coupled receptor trace amine-associated receptor 5 (TAAR5). The following applies: Li et al., 2013; cited from earlier work.

As to `C[N+](C)(CI)CCO` [IMC, iodomethyl choline], in experiment [1], the “obesity driven by high fat diet” value is on record as “improves obesity”. For the same molecule, the “obesity driven by leptin deficiency” value in experiment [2] was “improves obesity”.

With `CN(C)C` [TMA, trimethylamine], in experiment [3], the “activation/recognition of TAAR5” value is “known to activate”.

On to `C[N+](C)(C)[O-]` [TMAO, trimethylamine-N-oxide], for which, in experiment [3], the “activation/recognition of TAAR5” value is “does not recognize”.
